According to patent US9850227B2 (YUHAN CORPORATION, priority 2011, dated 2017):
Where a name gives a salt, the structure may show the parent alone.

Molecular target: T1, human 5-HT4(a) (Homo sapiens, UniProt Q13639)
T1 construct: host or cells: GeneBIAzer HTR4-CRE-bla CHO-K1 cells
Test: Evaluation of agonistic activity in CHO-K1 cells expressing human 5-HT4(a) (GeneBIAzer HTR4-CRE-bla CHO-K1 cells, beta-lactamase fluorescence ratio, EC50 from 8 concentrations)
Format: cell-based
Experimental: Evaluation of Agonistic Activity in CHO-K1 Cells Expressing Human 5-HT4(a)
As CHO-K1 cells stably expressing human 5-HT4(a), we used the GeneBIAzer HTR4-CRE-bla CHO-K1 cells (Invitrogen Corp.). The cells were cultured, under the condition of 37° C. and 5% CO2, in a DMEM supplemented with 10% fetal bovine serum (FBS), 25 mM HEPES (pH7.4), 600 μg/ml hygromycin B, 0.1 mM non-essential amino acids, 100 unit/ml penicillin and 100 μg/ml streptomycin. Subcultures were performed three times per one week, each being at less than 80% confluence. At the previous day before treating test compounds, the cells were collected using 0.5% trypsin/EDTA and then diluted with a DMEM supplemented with 1% FBS, 25 mM HEPES, and 0.1 mM non-essential amino acids into 3.125×10^5 cells/ml. 32 μl of the diluted cells were added into 384-well plate (10^4 cells per well) and then incubated overnight. After the overnight culture, 8 μl of the medium having 1% of DMSO was added into the cell-free control well and the non-stimulating control well, respectively. 8 μl of the respective test compound dilutions (which had been prepared by diluting by 100-times with the medium as mentioned in the above) having 1% of DMSO were added to the respective remaining wells. After being cultured in the incubator for 5 hours, the wells of the 384-plate were treated with the substrate solution (8 μl per well) prepared according to the vendor's instruction (i.e., Invitrogen's instruction), and then incubated in the dark room for additional two hours. Agonistic activities on 5-HT4 receptor were evaluated, on the basis of fluorescence values of the cleavage-products by beta-lactamase. After exciting to 410 nm of wavelength using a fluorescence detector (Genios Pro), we measured the fluorescence values at two emission wavelengths (first wavelength: 465 nm, second wavelength: 535 nm). Data were analyzed on the basis of the ratio of fluorescence intensities of each well at the respective wavelengths. Each EC50 value was calculated by non-linear regression analysis using the “GraphPad Prism” program, based on the activities according to 8-different concentrations of the test compounds.

T1 sequence (Q13639 1-387 isoform Q13639-2): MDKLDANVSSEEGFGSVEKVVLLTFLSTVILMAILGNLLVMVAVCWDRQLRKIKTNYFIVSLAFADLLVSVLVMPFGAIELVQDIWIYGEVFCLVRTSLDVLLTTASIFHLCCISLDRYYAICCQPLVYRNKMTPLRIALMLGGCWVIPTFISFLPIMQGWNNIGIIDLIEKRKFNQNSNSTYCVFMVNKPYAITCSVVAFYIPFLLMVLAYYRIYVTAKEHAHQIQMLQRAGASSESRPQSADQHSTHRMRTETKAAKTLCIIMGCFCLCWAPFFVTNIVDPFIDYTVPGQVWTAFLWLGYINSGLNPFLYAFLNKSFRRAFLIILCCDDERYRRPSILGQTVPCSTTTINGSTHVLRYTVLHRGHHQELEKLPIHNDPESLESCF

Structure (SMILES) | EC50 [nM]
CCCc1cc(N2CCCCC2CCO)nc(Nc2ccc(F)c(N)c2)n1 (stereo not drawn) [Example 181, 2-{1-[2-(3-amino-4-fluorophenylamino)-6-propylpyrimidin-4-yl]piperidin-2-yl}ethanol] | 0.025
CCCc1cc(N2CCCCC2CCO)nc(Nc2ccc(Cl)c(N)c2)n1 (stereo not drawn) [Example 182, 2-{1-[2-(3-amino-4-chlorophenylamino)-6-propylpyrimidin-4-yl]piperidin-2-yl}ethanol] | 0.022
CCCc1cc(N2CCCC3CCCCC32)nc(Nc2cccc(C#N)c2)n1 (stereo not drawn) [Example 187, 3-[4-(octahydroquinolin-1(2H)-yl)-6-propylpyrimidin-2-ylamino]benzonitrile] | 0.24
CCCc1cc(N2CCCC3CCCCC32)nc(Nc2cccc([N+](=O)[O-])c2)n1 (stereo not drawn) [Example 188, N-(3-nitrophenyl)-4-(octahydroquinolin-1(2H)-yl)-6-propylpyrimidin-2-amine] | 0.43
CCCc1cc(N2CCCC3CCCCC32)nc(Nc2ccc(F)c([N+](=O)[O-])c2)n1 (stereo not drawn) [Example 189, N-(4-fluoro-3-nitrophenyl)-4-(octahydroquinolin-1(2H)-yl)-6-propylpyrimidin-2-amine] | 0.32
CCCc1cc(N2CCCC3CCCCC32)nc(Nc2ccc(Cl)c([N+](=O)[O-])c2)n1 (stereo not drawn) [Example 190, N-(4-chloro-3-nitrophenyl)-4-(octahydroquinolin-1(2H)-yl)-6-propylpyrimidin-2-amine] | 0.46
CCCc1cc(N2CCCC3CCCCC32)nc(Nc2cccc(OC)c2)n1 (stereo not drawn) [Example 191, N-(3-methoxyphenyl)-4-(octahydroquinolin-1(2H)-yl)-6-propylpyrimidin-2-amine] | 0.34
CCCc1cc(N2CCCC3CCCCC32)nc(Nc2cccc(SC)c2)n1 (stereo not drawn) [Example 198, N-(3-methylthiophenyl)-4-(octahydroquinolin-1(2H)-yl)-6-propylpyrimidin-2-amine] | 0.4
CCCc1cc(N2CCCC3CCCCC32)nc(Nc2ccc3[nH]c(C(F)(F)F)nc3c2)n1 (stereo not drawn) [Example 200, N-[4-(octahydroquinolin-1(2H)-yl)-6-propylpyrimidin-2-yl]-2-(trifluoromethyl)-1H-benzo[d]imidazol-5-amine] | 0.18
CCCc1cc(N2CCCC3CCCCC32)nc(Nc2cnc3ccccc3c2)n1 (stereo not drawn) [Example 203, N-[4-(octahydroquinolin-1(2H)-yl)-6-propylpyrimidin-2-yl]quinolin-3-amine] | 0.14
CCCc1cc(N2CCC[C@@H](NCC)C2)nc(Nc2ccc(C)c(C#N)c2)n1 [Example 205, (R)-5-{4-[3-(ethylamino)piperidin-1-yl]-6-propylpyrimidin-2-ylamino}-2-methylbenzonitrile] | 0.008
CCCN[C@@H]1CCCN(c2cc(CCC)nc(Nc3ccc(C)c(C#N)c3)n2)C1 [Example 206, (R)-5-{4-[3-(propylamino)piperidin-1-yl]-6-propylpyrimidin-2-ylamino}-2-methylbenzonitrile] | 0.0087
CCCCN[C@@H]1CCCN(c2cc(CCC)nc(Nc3ccc(C)c(C#N)c3)n2)C1 [Example 207, (R)-5-{4-[3-(butylamino)piperidin-1-yl]-6-propylpyrimidin-2-ylamino}-2-methylbenzonitrile] | 0.013
CCCCCN[C@@H]1CCCN(c2cc(CCC)nc(Nc3ccc(C)c(C#N)c3)n2)C1 [Example 208, (R)-2-methyl-5-{4-[3-(pentylamino)piperidin-1-yl]-6-propylpyrimidin-2-ylamino}benzonitrile] | 0.029
CCCc1cc(N2CCC[C@@H](NCC(C)C)C2)nc(Nc2ccc(C)c(C#N)c2)n1 [Example 209, (R)-5-{4-[3-(isobutylamino)piperidin-1-yl]-6-propylpyrimidin-2-ylamino}-2-methylbenzonitrile] | 0.015
CCCc1cc(N2CCC[C@@H](NCCC(C)C)C2)nc(Nc2ccc(C)c(C#N)c2)n1 [Example 210, (R)-5-{4-[3-(isopentylamino)piperidin-1-yl]-6-propylpyrimidin-2-ylamino}-2-methylbenzonitrile] | 0.022
CCCc1cc(N2CCC[C@@H](NCC(C)(C)C)C2)nc(Nc2ccc(C)c(C#N)c2)n1 [Example 211, (R)-2-methyl-5-{4-[3-(neopentylamino)piperidin-1-yl]-6-propylpyrimidin-2-ylamino}benzonitrile] | 0.023

Structure (SMILES) | EC50 [nM]
CCCc1cc(N2CCC[C@@H](NC(C)C)C2)nc(Nc2ccc(C)c(C#N)c2)n1 [Example 212, (R)-5-{4-[3-(isopropylamino)piperidin-1-yl]-6-propylpyrimidin-2-ylamino}-2-methylbenzonitrile] | 0.1
CCCc1cc(N2CCC[C@@H](NCc3cccs3)C2)nc(Nc2ccc(C)c(C#N)c2)n1 [Example 214, (R)-2-methyl-5-(4-propyl-6-{3-[(thiophen-2-ylmethyl)amino]piperidin-1-yl}pyrimidin-2-ylamino)benzonitrile] | 0.072
CCCc1cc(N2CCC[C@@H](NCc3cc(C)c(C)o3)C2)nc(Nc2ccc(C)c(C#N)c2)n1 [Example 215, (R)-5-(4-{3-[(4,5-dimethylfuran-2-ylmethyl)amino]piperidin-1-yl}-6-propylpyrimidin-2-ylamino)-2-methylbenzonitrile] | 0.064
CCCc1cc(N2CCC[C@@H](NCCCSC)C2)nc(Nc2ccc(C)c(C#N)c2)n1 [Example 216, (R)-2-methyl-5-{4-[3-(3-methylthiopropylamino)piperidin-1-yl]-6-propylpyrimidin-2-ylamino}benzonitrile] | 0.016
CCCc1cc(N2CCC[C@@H](NCC3CC3)C2)nc(Nc2ccc(C)c(C#N)c2)n1 [Example 217, (R)-5-{4-[3-(cyclopropylmethylamino)piperidin-1-yl]-6-propylpyrimidin-2-ylamino}-2-methylbenzonitrile] | 0.013
CCCc1cc(N2CCC[C@@H](NCC3CCCC3)C2)nc(Nc2ccc(C)c(C#N)c2)n1 [Example 218, (R)-5-{4-[3-(cyclopentylmethylamino)piperidin-1-yl]-6-propylpyrimidin-2-ylamino}-2-methylbenzonitrile] | 0.016
CCCc1cc(N2CCC[C@@H](NCc3ccc(O)cc3)C2)nc(Nc2ccc(C)c(C#N)c2)n1 [Example 219, (R)-5-{4-[3-(4-hydroxybenzylamino)piperidin-1-yl]-6-propylpyrimidin-2-ylamino}-2-methylbenzonitrile] | 0.01
CCCc1cc(N2CCC[C@@H](NC(C)=O)C2)nc(Nc2ccc(C)c(C#N)c2)n1 [Example 220, (R)—N-{1-[2-(3-cyano-4-methylphenylamino)-6-propylpyrimidin-4-yl]piperidin-3-yl}acetamide] | 0.0082
CCCc1cc(N2CCC[C@@H](N)C2)nc(Nc2cccc(C#N)c2)n1 [Example 221, (R)-3-[4-(3-aminopiperidin-1-yl)-6-propylpyrimidin-2-ylamino]benzonitrile dihydrochloride] | 0.122
CCCc1cc(N2CCC[C@@H](N)C2)nc(Nc2ccc(F)c(C#N)c2)n1 [Example 222, (R)-5-[4-(3-aminopiperidin-1-yl)-6-propylpyrimidin-2-ylamino]-2-fluorobenzonitrile dihydrochloride] | 0.056
CCCN[C@@H]1CCCN(c2cc(CCC)nc(Nc3cccc(C#N)c3)n2)C1 [Example 223, (R)-3-{4-[3-(propylamino)piperidin-1-yl]-6-propylpyrimidin-2-ylamino}benzonitrile] | 0.045
CCCc1cc(N2CCC[C@@H](NCC3CC3)C2)nc(Nc2cccc(C#N)c2)n1 [Example 224, (R)-3-{4-[3-(cyclopropylmethylamino)piperidin-1-yl]-6-propylpyrimidin-2-ylamino}benzonitrile] | 0.07
CCCN[C@@H]1CCCN(c2cc(CCC)nc(Nc3ccc(F)c(C#N)c3)n2)C1 [Example 225, (R)-2-fluoro-5-{4-[3-(propylamino)piperidin-1-yl]-6-propylpyrimidin-2-ylamino}benzonitrile] | 0.021
CCCc1cc(N2CCC[C@@H](NCC3CC3)C2)nc(Nc2ccc(F)c(C#N)c2)n1 [Example 226, (R)-5-{4-[3-(cyclopropylmethylamino)piperidin-1-yl]-6-propylpyrimidin-2-ylamino}-2-fluorobenzonitrile] | 0.071
CCCc1cc(N2CCC[C@@H](NCC3CC3)C2)nc(Nc2ccc(F)c(N)c2)n1 [Example 227, (R)—N^1-{4-[3-(cyclopropylmethylamino)piperidin-1-yl]-6-propylpyrimidin-2-yl}-4-fluorobenzene-1,3-diamine] | 0.017
CCCc1cc(N2CCC[C@@H](NCC3CC3)C2)nc(Nc2ccc(N)c([N+](=O)[O-])c2)n1 [Example 228, (R)—N^1-{4-[3-(cyclopropylmethylamino)piperidin-1-yl]-6-propylpyrimidin-2-yl}-3-nitrobenzene-1,4-diamine] | 0.0035
